Experimental data: US11401278B2, “Macrocyclic indole derivatives” (The Broad Institute, Inc., priority 2017, dated 2022)
Structures can show the parent of a compound that is named as a salt.

Key:
MCL1 protein = MCL1 protein (Homo sapiens (Human), UniProt Q07820); experiment: PIxEL: protein-protein interaction in permeabilized cells by ELISA (Assay 5); assay type: cell-based; settings: permeabilized RKO cells, Biotin-BIM peptide 0.2 μM, serum free; median
Method: PI×EL: Protein-Protein Interaction in Permeabilized Cells by ELISA
Most MCL1 protein molecules are localized at the mitochondria outer membrane and sequester pro-apoptotic proteins through binding of their BCL2 homology domain 3 (BH3 domain). MEB buffer (150 mM mannitol, 10 mM HEPES pH 7.5, 50 mM KCl, 20 μM EDTA, 20 μM EGTA, 5 mM potassium succinate, 0.1% protease-free BSA (SIGMA) with low dose digitonin (0.002%) permeabilizes plasma membrane while leaves live mitochondria, where MCL1 maintains its native localization and conformation. Unlike biophysical assays (e.g. TR-FRET) that use truncated recombinant MCL1 protein, this assay uses full length endogenous MCL1 protein at mitochondria outer membrane. It measures the interaction between MCL1 protein and biotinylated BIM BH3 peptide. Compounds can compete with BIM BH3 peptide to bind to MCL1 protein. This serum free assay measures the affinity between MCL1 protein and compound in permeabilized cells, therefore it is not affected by serum binding and cell permeability, and can measure the intrinsic compound affinity.
On day 1, RKO colon cancer cell line cells were plated at 0.8 million cells/ml, 100 μl/well in 96-well flat bottom TC plates (Corning). MCL1 antibody (Santa Cruz sc-12756) were diluted at 200 fold (final concentration 1 μg/ml) in carbonate buffer (Thermo Fisher Scientific, pH 9.6), and 50 μl of diluted antibody was added to each well of high bind ELISA plates (SARSTEDT). Each plate was tapped to make sure liquid covering entire bottom of wells and incubate at 37° C. overnight.
On the second day, MCL1 antibody was washed from ELISA plate. 250 μl Odyssey® Blocking Buffer (PBS) (Li-Cor) was added to each well, incubated at room temperature for at least 1 hour, then washed once with 250 μl 1×PBST. Plates with RKO cells were gently washed once with 100 μl/well PBS, once with 100 μl/well MEB buffer without digitonin, then 100 μl of MEB buffer with 0.002% digitonin was gently added to each well. Compounds were added with HP Tecan compound dispenser in 3-fold dilution series, highest dose 30 μM, 10-dose per compound in quadruplicates. Biotin-BIM peptide (synthesized by 21st Century) was added with HP Tecan compound dispenser at 0.2 μM immediately after the addition of compounds. Plates were rocked for 1 hour at room temperature. Then MEB buffer was aspirated and 50 μl of CHAPS buffer (50 mM Tris-Cl, pH 7.4, 150 mM NaCl, 1% CHAPS, 1 mM EDTA, 1 mM EGTA, cOmplete protease inhibitors (Roche), PhosSTOP (Roche)) was added to each well. Plates were rocked for 1 hour at 4° C., then 45 μl cell lysate from each well were transferred to ELISA plates coated with MCL1 antibody. Plates were incubated overnight in the cold room with rocking.
On the third day, ELISA plates were washed once with 250 μl 1×PBST. Streptavidin-poly-HRP (Thermo Fisher Scientific) was diluted to 20 ng/ml in Odyssey blocking buffer plus 0.05% Triton-100, and 100 μl was added to each well of the ELISA plate. Plates were incubated at room temperature for 1 hour with rocking, then washed with 100 μL 1×PBST for 3 times. Each SuperSignal ELISA Femto Maximum Sensitivity substrate was added to a 50-ml tube and mixed, then 100 μl of mixed substrate was added to each well. Plates were shaken for 1 minute then luminescence was measured by Envision plate reader […]. Signal of each well were normalized by no-compound control and no-cell control. IC50 was calculated using Graphic Pad PRISM software.

MCL-1 = MCL-1 (Homo sapiens (Human), UniProt Q07820, K194A/K197A/R201A); experiment: Protein-compound interaction assay (SPR assay, Assay 8); assay type: binding; settings: immobilized MBP-MCL-1, 25° C., geometric mean
Source text: Assay 8 Protein-Compound Interaction Assay (SPR Assay)
The ability of the compounds described in this invention to bind to MCL-1 may be determined using surface plasmon resonance (SPR). This allows for the quantification of binding in terms of the equilibrium dissociation constant (KD [M]), as well as association and dissociation rate constants (kon [1/M 1/s] and koff [1/s], respectively). The measurements may be performed using Biacore® T200 or Biacore® S200 instruments (GE Healthcare).
For SPR measurements, recombinant MCL-1 (amino acids 173-321, N-terminal fused to Maltose Binding Protein (MBP) (SEQ ID 1) purchased from Beryllium (Bedford, Mass., USA)) was immobilized using standard amine coupling (Johnsson B et al, Anal Biochem. 1991 Nov. 1; 198(2):268-77). Briefly, carboxymethylated dextran biosensor chips (Series S Sensor Chip CMS, GE Healthcare) were activated with 1-ethyl-3-(3-dimethylaminopropyl)-carbodiimide hydrochloride (EDC) and N-hydroxysuccinimide (NHS) according to the supplier's instructions. MBP-MCL-1 was diluted in 1×PBS-P+ (GE Healthcare) and injected on the activated chip surface. Subsequently, a solution of 1 M ethanolamine-HCl (GE Healthcare) was injected to block unreacted groups, resulting in approximately 400-2500 response units (RU) of immobilized protein. A reference surface was generated by treatment with NHS-EDC and ethanolamine-HCl. Compounds were dissolved in 100% dimethylsulfoxide (DMSO) to a concentration of 10 mM and subsequently diluted in running buffer (1×PBS-P+ (GE Healthcare) [generated from PBS-P+ Buffer 10× (GE Healthcare): 0.2 M phosphate buffer with 27 mM KCl, 1.37 M NaCl and 0.5% Surfactant P20 (Tween 20).], 1% v/v DMSO). For SPR binding-measurements, serial dilutions of compound (eight dilution steps, typically ranging from 0.2 nM up to 1 μM) were injected over immobilized protein. […] Compounds were injected for 60 s followed by a dissociation time of up to 1000 s.
The double-referenced sensorgrams were fit to a simple reversible Langmuir 1:1 reaction mechanism as implemented in the Biacore® T200 and S200 evaluation software (T200 evaluation software version 2.0 and S200 evaluation software version 1.0, GE Healthcare).

Chain of MCL-1 (Q07820 whole entry K194A/K197A/R201A, looked up): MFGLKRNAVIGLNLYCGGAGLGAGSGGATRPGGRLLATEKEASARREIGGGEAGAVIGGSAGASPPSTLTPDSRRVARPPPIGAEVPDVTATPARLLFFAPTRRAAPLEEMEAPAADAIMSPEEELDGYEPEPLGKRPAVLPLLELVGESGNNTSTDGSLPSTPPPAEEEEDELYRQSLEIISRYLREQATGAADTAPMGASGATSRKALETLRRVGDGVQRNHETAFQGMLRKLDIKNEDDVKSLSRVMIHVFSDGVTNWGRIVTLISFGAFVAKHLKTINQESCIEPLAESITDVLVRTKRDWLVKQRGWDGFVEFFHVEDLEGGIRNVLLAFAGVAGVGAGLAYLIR
Chain of MCL1 protein (Q07820 whole entry): as the sequence (Q07820 whole entry K194A/K197A/R201A, looked up) above, with A194K, A197K, A201R counted along it

Compound | IC50 (MCL1 protein) | other results
Cc1c2c(nn1C)C(CCN1CCOCC1)N(C)S(=O)(=O)CCCn1c(C(=O)O)c(CCCOc3cccc4cc(F)ccc34)c3ccc(Cl)c-2c31 (racemic) [Example 48, (rac)-4-chloro-7-{3-[(6-fluoro-1-naphthyl)oxy]propyl}-2,3,14-trimethyl-15-(rac)-[2-(morpholin-4-yl)ethyl]-11,12,14,15-tetrahydro-2H,10H-pyrazolo[3′,4′:4,5][1,2,8]thiadiazacycloundecino[6,7,8-hi]indole-8-carboxylic acid 13,13-dioxide (Mixture of Stereoisomers)] | 29.9 nM | –
CCc1c2c(nn1C)CN(C1CC1)S(=O)(=O)CCCn1c(C(=O)O)c(CCCOc3cccc4cc(F)ccc34)c3ccc(Cl)c-2c31 (racemic) [Example 53, (rac)-4-chloro-14-cyclopropyl-3-ethyl-7-{3-[(6-fluoro-1-naphthyl)oxy]propyl}-2-methyl-11,12,14,15-tetrahydro-2H,10H-pyrazolo[3′,4′:4,5][1,2,8]thiadiazacycloundecino[6,7,8-hi]indole-8-carboxylic acid 13,13-dioxide] | 329 nM | –
CCc1c2c(nn1C)CN(CC)S(=O)(=O)CCCn1c(C(=O)O)c(CCCOc3cccc4cc(F)ccc34)c3ccc(Cl)c-2c31 (racemic) [Example 56, (rac)-4-chloro-3,14-diethyl-7-{3-[(6-fluoro-1-naphthyl)oxy]propyl}-2-methyl-11,12,14,15-tetrahydro-2H,10H-pyrazolo[3′,4′:4,5][1,2,8]thiadiazacycloundecino[6,7,8-hi]indole-8-carboxylic acid 13,13-dioxide] | 145 nM | –
CCc1c2c(nn1C)C(CCN1CCOCC1)N(C)S(=O)(=O)CCCn1c(C(=O)O)c(CCCOc3cccc4cc(F)ccc34)c3ccc(Cl)c-2c31 (racemic) [Example 73, (rac)-(4-chloro-3-ethyl-7-{3-[(6-fluoronaphthalen-1-yl)oxy]propyl}-2,14-dimethyl-15-[2-(morpholin-4-yl)ethyl]-13,13-dioxo-10,11,12,13,14,15-hexahydro-2H-13lambda^6-pyrazolo[3′,4′:4,5][1,2,8]thiadiazacycloundecino[6,7,8-hi]indole-8-carboxylic acid (Racemate 1)] | 33.1 nM | –
Cc1c2c(nn1C)CNS(=O)(=O)CCCn1c(C(=O)O)c(CCCOc3cccc4cc(F)ccc34)c3ccc(Cl)c-2c31 (single isomer, unassigned; enantiomer 1) [Example 51, 4-chloro-7-{3-[(6-fluoronaphthalen-1-yl)oxy]propyl}-2,3-dimethyl-13,13-dioxo-10,11,12,13,14,15-hexahydro-2H-13lambda^6-pyrazolo[3′,4′:4,5][1,2,8]thiadiazacycloundecino[6,7,8-hi]indole-8-carboxylic acid (Enantiomer 1)] | 458 nM | –
CCc1c2c(nn1C)CN(C1CC1)S(=O)(=O)CCCn1c(C(=O)O)c(CCCOc3cccc4cc(F)ccc34)c3ccc(Cl)c-2c31 (single isomer, unassigned; enantiomer 1) [Example 54, (−)-4-chloro-14-cyclopropyl-3-ethyl-7-{3-[(6-fluoronaphthalen-1-yl)oxy]propyl}-2-methyl-13,13-dioxo-10,11,12,13,14,15-hexahydro-2H-13lambda^6-pyrazolo[3′,4′:4,5][1,2,8]thiadiazacycloundecino[6,7,8-hi]indole-8-carboxylic acid N-ethylethanamine Salt (Enantiomer 1)] | 360 nM | –
CCc1c2c(nn1C)CN(CC)S(=O)(=O)CCCn1c(C(=O)O)c(CCCOc3cccc4cc(F)ccc34)c3ccc(Cl)c-2c31 (single isomer, unassigned; enantiomer 1) [Example 57, (+)-4-chloro-3,14-diethyl-7-{3-[(6-fluoronaphthalen-1-yl)oxy]propyl}-2-methyl-13,13-dioxo-10,11,12,13,14,15-hexahydro-2H-13lambda^6-pyrazolo[3′,4′:4,5][1,2,8]thiadiazacycloundecino[6,7,8-hi]indole-8-carboxylic acid N-ethylethanamine Salt (Enantiomer 1)] | 74.8 nM | –
Cc1c2c(nn1C)C(CCN1CCOCC1)N(C)S(=O)(=O)CCCn1c(C(=O)O)c(CCCOc3cccc4cc(F)ccc34)c3ccc(Cl)c-2c31 (single isomer, unassigned; enantiomer 2) [Example 67, 4-chloro-7-{3-[(6-fluoronaphthalen-1-yl)oxy]propyl}-2,3,14-trimethyl-15-[2-(morpholin-4-yl)ethyl]-13,13-dioxo-10,11,12,13,14,15-hexahydro-2H-13lambda^6-pyrazolo[3′,4′:4,5][1,2,8]thiadiazacycloundecino[6,7,8-hi]indole-8-carboxylic acid (Enantiomer 2)] | 8.74 nM | –
CCNCC.CCc1c2c(nn1C)C(CCN1CCOCC1)N(C)S(=O)(=O)CCCn1c(C(=O)O)c(CCCOc3cccc4cc(F)ccc34)c3ccc(Cl)c-2c31 (single isomer, unassigned; enantiomer 2) [Example 76, 4-chloro-3-ethyl-7-{3-[(6-fluoronaphthalen-1-yl)oxy]propyl}-2,14-dimethyl-15-[2-(morpholin-4-yl)ethyl]-13,13-dioxo-10,11,12,13,14,15-hexahydro-2H-13lambda^6-pyrazolo[3′,4′:4,5][1,2,8]thiadiazacycloundecino[6,7,8-hi]indole-8-carboxylic acid-N-ethylethanamine Salt (Enantiomer 2)] | – | Kd (MCL-1): 0.34 nM; koff (MCL-1): 0.0025 s⁻¹; kon (MCL-1): 7.3e+06 M⁻¹ s⁻¹
CCc1c2c(nn1C)C(CCC1CCOCC1)N(C)S(=O)(=O)CCCn1c(C(=O)O)c(CCCOc3cccc4cc(F)ccc34)c3ccc(Cl)c-2c31 (single isomer, unassigned; enantiomer 3) [Example 63, (+)-4-chloro-3-ethyl-7-{3-[(6-fluoronaphthalen-1-yl)oxy]propyl}-2,14-dimethyl-15-[2-(oxan-4-yl)ethyl]-13,13-dioxo-10,11,12,13,14,15-hexahydro-2H-13lambda^6-pyrazolo[3′,4′:4,5][1,2,8]thiadiazacycloundecino[6,7,8-hi]indole-8-carboxylic acid (Enantiomer 3)] | 22 nM | –
